# Literature values, collected in patent US20030166006A1, “Glucose-1-phosphate thymidylyltransferase and method for selecting inhibitors thereof” (priority 2000, published 2003).
# Target: RmlA from Pseudomonas aeruginosa (Pseudomonas aeruginosa, UniProt Q9HU22)
# Details: allosteric feedback inhibition by final product of the four enzyme pathway; Melo & Glaser, 1965
# Sequence of RmlA from Pseudomonas aeruginosa (Q9HU22 1-293): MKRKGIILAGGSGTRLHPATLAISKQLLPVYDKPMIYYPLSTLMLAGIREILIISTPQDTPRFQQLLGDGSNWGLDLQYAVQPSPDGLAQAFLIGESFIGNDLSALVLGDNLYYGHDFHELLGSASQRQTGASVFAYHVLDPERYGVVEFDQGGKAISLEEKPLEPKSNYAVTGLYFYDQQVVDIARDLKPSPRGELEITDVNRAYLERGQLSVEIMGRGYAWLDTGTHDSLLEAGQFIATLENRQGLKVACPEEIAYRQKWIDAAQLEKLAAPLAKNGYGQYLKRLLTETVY
structure (smiles),measurement,value
"Cc1cn([C@H]2C[C@H](O)[C@@H](COP(=O)(O)OP(=O)(O)OC3OC(C)C(O)C(O)C3O)O2)c(=O)[nH]c1=O (stereo partly drawn) [dTDP-rhamnose, 2′-deoxy-thymidylyl-diphospho-L-rhamnose]",inhibition of RmlA,strongly inhibited
